Assay results reported in the supplement of paper PMC11061612.

What was measured:
[1] = system: BICR22 (Oral Cavity Carcinoma); assay: Bliss excess, mean over the matrix (fraction); higher = more synergy
In short: (§1)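 After 24 hours at 37°C and 5% CO2 in 1536-well plates, cells in DMEM/F12 or RPMI plus 10% FBS received two-drug dose matrices for 72 hours. Viability came from CellTiter-Glo 2.0 luminescence and was scaled as inhibition, anchored at 0 by vehicle wells and at 1 by blank wells. Combination Emax is taken as the second-highest inhibition in the matrix, and Bliss excess as the observed combination effect less EA + EB − EA·EB, with EA and EB the single-agent effects.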

[2] = system: CAPAN-2 (Pancreatic Carcinoma); assay: as above
In short: as §1

[3] = system: CCK-81 (Colorectal Carcinoma); assay: as above
In short: as §1

[4] = system: COLO-320-HSR (Colorectal Carcinoma); assay: as above
In short: as §1

[5] = system: ECC10 (Gastric Carcinoma); assay: as above
In short: as §1

[6] = system: FU97 (Gastric Carcinoma); assay: as above
In short: as §1

[7] = system: IGR-37 (Melanoma); assay: as above
In short: as §1

[8] = system: KARPAS-422 (B-Cell Non-Hodgkin's Lymphoma); assay: as above
In short: as §1

[9] = system: NCI-H1581 (Non-Small Cell Lung Carcinoma); assay: as above
In short: as §1

[10] = system: NCI-H1666 (Lung Adenocarcinoma); assay: as above
In short: as §1

[11] = system: NCI-H2066 (Squamous Cell Lung Carcinoma); assay: as above
In short: as §1

[12] = system: NCI-H64 (Small Cell Lung Carcinoma); assay: as above
In short: as §1

[13] = system: NY (Osteosarcoma); assay: as above
In short: as §1

[14] = system: ONS-76 (Other Solid Carcinomas); assay: as above
In short: as §1

[15] = system: PANC-10-05 (Pancreatic Carcinoma); assay: as above
In short: as §1

[16] = system: TT (Thyroid Gland Carcinoma); assay: as above
In short: as §1

[17] = system: U-2-OS (Osteosarcoma); assay: as above
In short: as §1

[18] = system: VCaP (Prostate Carcinoma); assay: as above
In short: as §1

[19] = system: BICR22 (Oral Cavity Carcinoma); assay: combination Emax (second highest fraction inhibited in the dose matrix, 72 h); higher = more inhibition; extreme values may be limits of the assay
In short: as §1

[20] = system: CAPAN-2 (Pancreatic Carcinoma); assay: as above
In short: as §1

[21] = system: CCK-81 (Colorectal Carcinoma); assay: as above
In short: as §1

[22] = system: COLO-320-HSR (Colorectal Carcinoma); assay: as above
In short: as §1

[23] = system: ECC10 (Gastric Carcinoma); assay: as above
In short: as §1

[24] = system: FU97 (Gastric Carcinoma); assay: as above
In short: as §1

[25] = system: IGR-37 (Melanoma); assay: as above
In short: as §1

[26] = system: KARPAS-422 (B-Cell Non-Hodgkin's Lymphoma); assay: as above
In short: as §1

[27] = system: NCI-H1581 (Non-Small Cell Lung Carcinoma); assay: as above
In short: as §1

[28] = system: NCI-H1666 (Lung Adenocarcinoma); assay: as above
In short: as §1

[29] = system: NCI-H2066 (Squamous Cell Lung Carcinoma); assay: as above
In short: as §1

[30] = system: NCI-H64 (Small Cell Lung Carcinoma); assay: as above
In short: as §1

[31] = system: NY (Osteosarcoma); assay: as above
In short: as §1

[32] = system: ONS-76 (Other Solid Carcinomas); assay: as above
In short: as §1

[33] = system: PANC-10-05 (Pancreatic Carcinoma); assay: as above
In short: as §1

[34] = system: TT (Thyroid Gland Carcinoma); assay: as above
In short: as §1

[35] = system: U-2-OS (Osteosarcoma); assay: as above
In short: as §1

[36] = system: VCaP (Prostate Carcinoma); assay: as above
In short: as §1
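For Bliss excess, mean over the matrix in this document: after 72 h of two-drug dosing.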

CC1(C)CCC(CN2CCN(c3ccc(C(=O)NS(=O)(=O)c4ccc(NCC5CCOCC5)c([N+](=O)[O-])c4)c(Oc4cnc5[nH]ccc5c4)c3)CC2)=C(c2ccc(Cl)cc2)C1 [Venetoclax] + CS(=O)(=O)CCNCc1ccc(-c2ccc3ncnc(Nc4ccc(OCc5cccc(F)c5)c(Cl)c4)c3c2)o1 [Lapatinib] (first compound max 1 µM, 7x7, partner max 10 µM)
Bliss excess [1]: -0.0287
Bliss excess [2]: -0.0425
Bliss excess [3]: -0.0352
Bliss excess [4]: -0.0048
Bliss excess [5]: 0.0105
Bliss excess [6]: 0.0218
Bliss excess [7]: 0.0223
Bliss excess [8]: 0.049
Bliss excess [9]: -0.0136
Bliss excess [10]: -0.0214
Bliss excess [11]: -0.0203
Bliss excess [12]: -0.0068
Bliss excess [13]: -0.0008
Bliss excess [14]: -0.0055
Bliss excess [15]: -0.0426
Bliss excess [16]: -0.0344
Bliss excess [17]: -0.044
Bliss excess [18]: -0.0449
combination Emax [19]: 0.21
combination Emax [20]: 0.115
combination Emax [21]: 0.892
combination Emax [22]: 0.169
combination Emax [23]: 0.94
combination Emax [24]: 0.813
combination Emax [25]: 0.253
combination Emax [26]: 0.884
combination Emax [27]: 0.242
combination Emax [28]: 0.568
combination Emax [29]: 0.352
combination Emax [30]: 0.21
combination Emax [31]: 0.226
combination Emax [32]: 0.228
combination Emax [33]: 0.353
combination Emax [34]: 0.121
combination Emax [35]: 0.0668
combination Emax [36]: 0.109
